The results in this text go back to patent EP4643861A1, “A HALOGENATED-HETEROARYL KINASE INHBITOR FOR TREATING SOFT TISSUE SARCOMA AND VASCULAR TUMORS” (iOmx Therapeutics AG, priority 2024, dated 2025).

The structures appear in SMILES notation.

Data set [1] deals with Human Patient-Derived Xenograft (PDX) Angiosarcoma. Put plainly: E9 monotherapy efficacy in Human Patient-Derived Xenograft (PDX) Angiosarcoma model. The class given is in vivo, immuno-deficient NOD scid gamma (NOG) mice. As to conditions: BID × 23, termination at day 23. From the text: This Angiosarcoma PDX model was used for preclinical evaluation of E9 in Angiosarcoma due to the retention of tumor heterogeneity and biological characteristics. Additionally, due to the rare indication, no murine syngeneic or human xenograft models are available.
Briefly, immuno-deficient NOD scid gamma (NOG) mice, were housed in a controlled environment conducive to tumor growth. Human PDX tumor samples, obtained from a patient with Angiosarcoma (Epitheloid AS […]), were implanted subcutaneously into the mice. Tumor growth was monitored using non-invasive caliper method and was calculated by the following formula: volume = (width)2 × (length)/2. Animals were randomized into treatment groups at a tumor volume (TV) of ~160mm3 (Table 1). Treatment started after randomization twice daily until termination at day 23 when Vehicle animals reached termination criteria due to TV. Table 1: Example treatment groups.
For orientation: A xenograft is tissue or cells of one species grown in another, often human tumour cells in immunodeficient mice.

Data set [2] deals with secondary radiation-induced cutaneous angiosarcoma. Nature of the data set: Treatment of a secondary angiosarcoma in a patient (dose escalation study). It counts as in vivo, human. As to the method:
Clinical responder patient suffered from a secondary radiation-induced cutaneous angiosarcoma. The patient, who previously received radiotherapy in context of a treatment of breast cancer, developed secondary angiosarcoma. The angiosarcoma was treated with chemotherapy including paclitaxel, doxorubicin and cyclophosphamide the patient developed treatment resistance to the chemotherapy. In the following the patient received E9 in context of a dose excalation study in which E9 was administered orally every 12h (i.e. twice daily) for 28 days per treatment cycle. E9 daily doses were escalated from 10mg to 30mg and finally 60mg E9 during the then following continuous treatment.

Consider `Cc1nc(Nc2ncc(C(=O)Nc3c(CF)csc3Cl)s2)cc(N2CCN(C)CC2)n1` [E9, N-(2-chloro-4-(fluoromethyl)thiophen-3-yl)-2-((2-methyl-6-(4-methylpiperazin-1-yl)pyrimidin-4-yl)amino)thiazole-5-carboxamide], for which the “tumor growth inhibition (TGI)” value in data set [1] (25mg/kg E9, p.o.) is on record as 55%. Further, the “tumor size at termination compared to treatment start” value in data set [1] (50 mg/kg E9, p.o.) is “tumor regression”. In data set [2] (further treatment with 60mg daily E9), the “duration of maintained near-complete response” value is “over 10 months”. Also, the tolerability result in data set [2] (orally every 12h, 28 days per cycle, daily doses escalated from 10mg to 30mg and finally 60mg) is reported as “well tolerated”. Further, in data set [2] (patient resistant to paclitaxel, doxorubicin and cyclophosphamide, E9 orally twice daily), the “clinical response (reduction of cutaneous lesions)” value was “near-complete response”.
